Patent US10076533B2, “Acyclic nucleoside phosphonate diesters” (The Regents of the University of California, priority 2013, dated 2018)
Where two headings read alike, the source gives them in different places.

Assays:
[1] = Cytotoxicity in HFF cells in parallel to HSV-1 assay; conditions: human, […]
[2] = system: HPV-11; test: HPV-11 origin replication in HEK 293 cells, qPCR; type: cell-based; conditions: for EC50: HEK293, HPV-11 origin replication in HEK 293 cells, 48 hr, qPCR; for Selectivity Index: HPV-11, HEK 293 cells
Method: (§1) An origin-containing plasmid was co-transfected with HPV-11 E1 and E2 protein expression vectors into HEK 293 cells. At 4 hr post-transfection, cells were treated with compound dilutions and the cells were incubated for 48 hr. Replication of the virus origin was detected with DpnI and exonuclease III to remove unreplicated input bacterial plasmid DNA. Remaining replicated DNA was quantified by qPCR. Toxicity was determined by trypan blue exclusion.

[3] = system: HPV-16; test: HPV-16 origin replication in HEK 293 cells, qPCR; type: cell-based; conditions: for EC50: HEK293, HPV-16 origin replication in HEK 293 cells, 48 hr, qPCR, read-out: EC50; for Selectivity Index: HPV-16, HEK 293 cells
Method: as §1, with “HPV-16” for “HPV-11”

[4] = Toxicity in HEK 293 cells by trypan blue exclusion (HPV-11 example); type: cell-based; conditions: human
Method: as §1

[5] = Cytotoxicity in MT-2 cells, flow cytometry cell counts and viability; type: cell-based, human; conditions: human; MT-2 cells, 72 hrs
Method: MT-2 cells were incubated with drug for 72 hrs and harvested. Flow count beads (Beckman Coulter, Miami, Fla.) were added to the cell suspension followed by propidium iodide staining and analysis using flow cytometer and the 50% cytotoxic concentration (CC50) was calculated from the cell counts and viability.

[6] = Cytotoxicity in HFF cells in parallel to HSV-2 assay; conditions: human, […]
[7] = Viability of PBMC by XTT reduction; conditions: human, PHA-stimulated human PBMCs
[8] = human
[9] = Antiproliferative activity, neutral red, normal human fibroblasts; conditions: normal human fibroblasts (HFF), monolayer culture
[10] = system: Hepatitis B virus; test: HBV replication in 2.2.15 cells, HBV DNA blot hybridization; conditions: for EC50: Hepatitis B virus, 168 h; for Selectivity Index: hepatitis B virus, 2.2.15 cells
[11] = system: HIV-1LAI; test: HIV antiviral assay in MT-2 cells, p24 reduction; conditions: for EC50: Human immunodeficiency virus 1, MT2, 96 h
[12] = Cytotoxicity in 2.2.15 cells by neutral red uptake; conditions: human
[13] = Cytotoxicity in HFF cells in parallel to cytomegalovirus assay; conditions: human, […]
[14] = system: Caski (HPV-16); test: Antiproliferative activity, neutral red, Caski cervical cancer cells; conditions: for CC50: Homo sapiens, Ca-Ski, 96 h, read-out: Cytotoxic concentration 50% (CC50) Caski (HPV-16)
[15] = system: Hela (HPV-18); test: Antiproliferative activity, neutral red, Hela cervical cancer cells; conditions: Homo sapiens, 96 h, read-out: Cytotoxic concentration 50% (CC50) Hela (HPV-18)
[16] = system: AD169 strain of human cytomegalovirus; test: Antiviral effect in HFF cells infected with human cytomegalovirus (AD169); conditions: for EC50: Human betaherpesvirus 5, AD169, HFF, 336 h; for Selectivity Index: human cytomegalovirus (AD169), HFF cells
[17] = system: Copenhagen strain of vaccinia virus; test: microbe, parasite or virus in culture; type: cell-based; conditions: for EC50: Orthopoxvirus vaccinia, HFF, 168 h; for Selectivity Index: vaccinia virus (Copenhagen), HFF cells
[18] = system: BK virus (Gardner strain); test: Antiviral effect in HFF cells infected with BK virus (Gardner strain), qPCR; conditions: for Selectivity Index: BK virus (Gardner strain), HFF cells; for EC50: Betapolyomavirus hominis, HFF, 336 h
[19] = in vitro; conditions: human
[20] = African green monkey, uninfected COS7 cells
[21] = system: MAD-1 strain of JC virus; test: Antiviral effect in JC virus (MAD-1) infected COS7 cells, qPCR; conditions: for EC50: JC polyomavirus, COS-7, 168 h; for Selectivity Index: JC virus (MAD-1), COS7 cells
[22] = Toxicity in primary human keratinocyte raft cultures by histology
[23] = system: HPV-18; test: Antiviral effect in HPV-18 infected primary human keratinocyte rafts, qPCR; conditions: for Selectivity Index: HPV-18 keratinocyte rafts; for EC50: Homo sapiens, Keratinocyte
[24] = system: HIV-192US727; test: Anti-HIV assay in human PBMC, supernatant reverse transcriptase activity; conditions: for Selectivity Index: HIV-192US727, human PBMC; for EC50: Human immunodeficiency virus 1, PBMC, 168 h
[25] = Toxicity in HEK 293 cells by trypan blue exclusion (HPV-16 example); type: cell-based; conditions: human
Method: as §1, with “HPV-16” for “HPV-11”

[26] = Effect of oral compounds on body weight in Balb-c mice; type: in vivo
Method: Compounds were administered at the indicated doses by oral gavage daily for 5 days. Weights measured before and on day 6 after 5 doses.

Compound | CC50 at 3 days [1] | EC50 [2] | Selectivity Index [2] | EC50 [3] | Selectivity Index [3] | CC50 at 48 h [4] | CC50 at 72 h [5] | CC50 at 3 days [6] | CC50 at 7 days [7] | CC50 at 14 days [8] | CC50 at 4 days [9] | EC50 [10] | Selectivity Index [10] | EC50 [11] | CC50 at 7 days [12] | CC50 at 14 days [13] | CC50 [14] | CC50 [15] | EC50 [16] | Selectivity Index [16] | further results
CCCCCCCCCCCCCCCCCCOCCOP(=O)(CO[C@H](CO)Cn1cnc2c(N)ncnc21)OCc1ccccc1 (stereo partly drawn) [Compound 218, benzyl octadecyloxyethyl 9-(S)-[3-hydroxy-2-(phosphonomethoxy)propyl] adenine] | 14500 nM | 770 nM | >370 | 240 nM | >41.7 | > 100000 nM | 2300 ± 1600 nM | 6910 nM | 230 nM | 2800 nM | 5200 nM | 760 nM | >132 | 130 ± 140 nM | > 100000 nM | 7490 nM | 55 nM | 29 nM | < 30 nM | >250 | EC50 [17]: < 30 nM; Selectivity Index [17]: >3330; Selectivity Index [18]: >93; EC50 [18]: < 30 nM; CC50 [19]: > 100000 nM; CC50 at 7 days [20]: 10200 nM; EC50 [21]: > 4000 nM; Selectivity Index [21]: <2.6; CC50 [22]: > 10000 nM; Selectivity Index [23]: >39; EC50 [23]: 250 nM; Selectivity Index [24]: >23.0; EC50 [24]: < 10 nM; CC50 at 48 h [25]: > 10000 nM
CCCCCCCCCCCCCCCCCCOCCOP(=O)(CO[C@H](CO)Cn1ccc(N)nc1=O)OCc1ccccc1 (stereo partly drawn) [Compound 219, benzyl octadecyloxyethyl 1-(S)-[(3-hydroxy-2-phosphonomethoxy)propyl]cytosine] | 19300 nM | 2040 nM | >4.9 | 2230 nM | >4.48 | > 10000 nM | 18000 ± 3600 nM | 13100 nM | 2870 nM | 6540 nM | 52000 nM | 450 nM | >223 | 2700 ± 2100 nM | > 100000 nM | 84200 nM | 2000 nM | 2200 nM | < 30 nM | >2807 | body weight Day 6 ([26]; 20 mg/kg/day oral gavage daily for 5 days): 19.27 ± 1.32 (6); body weight Day 0 ([26]; 20 mg/kg/day oral gavage, before dosing): 19.03 ± 1.16 (6); Selectivity Index ([11]; CC50/EC50, MT-2 cells): 6.7; fold more effective in reducing viable cell number in the cervical cancer lines than in normal, non-transformed human fibroblasts ([14]; cervical cancer lines (Caski, Hela) vs HFF): 23.6 fold; EC50 [17]: 90 nM; Selectivity Index [17]: >1110; Selectivity Index [18]: >218; EC50 [18]: < 30 nM; CC50 [19]: > 100000 nM; CC50 at 7 days [20]: 12800 nM; EC50 [21]: > 4000 nM; Selectivity Index [21]: <3.2; CC50 [22]: > 10000 nM; Selectivity Index [23]: >9.4; EC50 [23]: 1060 nM; Selectivity Index [24]: >28.7; EC50 [24]: < 100 nM; CC50 at 48 h [25]: > 10000 nM
